Columns and labels:
[1] = Cytotoxicity assay (MTT assay), chrysene treated 48 hours; format: cell-based, human; settings: human, HepG2 cells; HepG2, MTT, 48 hours; read-out: IC20 (concentration exhibiting 80% cell survival rate)
Protocol: (§1) The human hepatoma cell line HepG2 (Korean Cell Line Bank) was cultured in DMEM (Gibco-BRL, USA) supplemented with 10% FBS in 100 mm dish until it grew 80%. The present inventors selected chrysene (Sigma-Aldrich, USA) among polycyclic aromatic hydrocarbons known to have carcinogenicity, based on the previous studies and reports. Chrysene was dissolved in DMSO. The concentration of vehicle was up to 0.1% in every experiment.
(§2) MTT assay with the HepG2 cell line was performed according to the method of Mossman et al. (J. Immunol. Methods, 65: 55-63, 1983). The cells were inoculated in a 24-well plate containing DMEM at the concentration of 4×10^5 cells/well, to which chrysene dissolved in DMSO was treated. 48 hours later, MTT (3-[4,5-dimethylthiazol-2-yl]-2,5-diphenyltetra zolium bromide) was added at the concentration of 5 mg/ml, followed by culture at 37° C. for 3 hours. Then, medium was eliminated and generated formazan crystal was dissolved in 500 μl of DMSO. The solution was aliquoted in a 96 well-plate and OD540 was measured. Cytotoxicity in the HepG2 cell line caused by chrysene was investigated. As a result, IC20 was 34.97 µM (see FIG. 1) and thus the concentration of chrysene for the further experiment was determined as the above.

HepG2 cell line = test: as above; format: cell-based, human; settings: HepG2
Protocol: as §1, §2

HepG2 cells = test: Quantitative real time RT-PCR of genes up- or down-regulated by chrysene; format: cell-based, human
Protocol: […]
To investigate and quantify the expressions of those genes, primers which can specifically proliferate of those genes' mRNA (see Table 4) were prepared, and quantitative real time RT-PCR was performed using My IQ Real-time PCR (Bio-rad, USA). […] To quantify PCR product, SYBR Green I (Bio-rad, USA) staining was performed. SYBR Green I staining is based on binding to double stranded DNA, so that as double stranded DNA increases during PCR, fluorescence intensity increases. […]

[2] = test system: salmonella TA110 and TA98 strains; settings: even under normal metabolic activity of the liver (rats); cited from earlier work

c1ccc2c(c1)ccc1c3ccccc3ccc21 [chrysene]
IC20 at 48 h [1]: 35 µM | cytotoxicity in the human hepatoma cell line (HepG2 cell line): demonstrated cytotoxicity | expression profiles of 25 up-regulated genes and 10 down-regulated genes (HepG2 cells): consistent with the result of oligo-microarray | mutagenicity in Ames tests [2]: showed mutagenicity

— patent US8080377B2, “Method for confirming the exposure on chrysene” (Korea Institute of Science and Technology, priority 2008, dated 2011)
